Assay results from the supplement of paper PMC10307832.

Experiments:
Assay in all cases: relative viability (nuclei count vs DMSO), 5 days (fraction); higher = more cells survive
Quizartinib + OSI-027 = compound: CC(C)(C)c1cc(NC(=O)Nc2ccc(-c3cn4c(n3)sc3cc(OCCN5CCOCC5)ccc34)cc2)no1 [Quizartinib] + COc1cccc2cc(-c3nc([C@H]4CC[C@H](C(=O)O)CC4)n4ncnc(N)c34)[nH]c12 [OSI-027] (partner 0.5 µM)
Outline: (§1)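 For relative viability, nuclei counts in treated wells were divided by those in vehicle wells. Lung cancer cell lines had been pin-tool dosed in 1536-well plates the day after seeding and cultured for 5 days, then fixed and stained in one step (final 0.05% Triton X-100, 1% formaldehyde, 1 ug/ml Hoechst) and imaged at 4×. Doses were one drug alone or a fixed anchor-drug dose plus five library-drug doses (not always all listed) in √10 steps, and values are duplicate-plate medians.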

Quizartinib + Linsitinib = compound: CC(C)(C)c1cc(NC(=O)Nc2ccc(-c3cn4c(n3)sc3cc(OCCN5CCOCC5)ccc34)cc2)no1 [Quizartinib] + C[C@]1(O)C[C@@H](c2nc(-c3ccc4ccc(-c5ccccc5)nc4c3)c3c(N)nccn32)C1 [Linsitinib] (partner 1 µM)
Outline: as §1

Quizartinib + Phenformin = compound: CC(C)(C)c1cc(NC(=O)Nc2ccc(-c3cn4c(n3)sc3cc(OCCN5CCOCC5)ccc34)cc2)no1 [Quizartinib] + N=C(N)NC(=N)NCCc1ccccc1 [Phenformin] (partner 250 µM)
Outline: as §1

YM155 + Luminespib = compound: COCC[n+]1c2c(n(Cc3cnccn3)c1C)C(=O)c1ccccc1C2=O [YM155] + CCNC(=O)c1noc(-c2cc(C(C)C)c(O)cc2O)c1-c1ccc(CN2CCOCC2)cc1 [Luminespib] (partner 0.01 µM)
Outline: as §1

Row | Cell Line | relative viability (Quizartinib + OSI-027; first compound 0.001 µM) | relative viability (Quizartinib + OSI-027; first compound 0.003162 µM) | relative viability (Quizartinib + OSI-027; first compound 0.01 µM) | relative viability (Quizartinib + OSI-027; first compound 0.03162 µM) | relative viability (Quizartinib + OSI-027; first compound 0.1 µM) | relative viability (Quizartinib + Linsitinib; first compound 0.001 µM) | relative viability (Quizartinib + Linsitinib; first compound 0.003162 µM) | relative viability (Quizartinib + Linsitinib; first compound 0.01 µM) | relative viability (Quizartinib + Linsitinib; first compound 0.03162 µM) | relative viability (Quizartinib + Linsitinib; first compound 0.1 µM) | relative viability (Quizartinib + Phenformin; first compound 0.001 µM) | relative viability (Quizartinib + Phenformin; first compound 0.003162 µM) | relative viability (Quizartinib + Phenformin; first compound 0.01 µM) | relative viability (Quizartinib + Phenformin; first compound 0.03162 µM) | relative viability (Quizartinib + Phenformin; first compound 0.1 µM) | relative viability (YM155 + Luminespib; first compound 0.002 µM) | relative viability (YM155 + Luminespib; first compound 0.006325 µM) | relative viability (YM155 + Luminespib; first compound 0.02 µM) | relative viability (YM155 + Luminespib; first compound 0.06325 µM)
1 | NCI-H2228 | 0.616 | 0.557 | 0.679 | 0.431 | 0.539 | 0.736 | 0.699 | 0.808 | 0.534 | 0.624 | 0.242 | 0.228 | 0.52 | 0.345 | 0.26 | 0.16 | 0.148 | 0.104 | 0.144
2 | NCI-H2347 | 0.234 | 0.434 | 0.365 | 0.377 | 0.516 | 0.943 | 0.956 | 0.969 | 0.908 | 1.07 | 0.268 | 0.359 | 0.461 | 0.395 | 0.497 | 0.409 | 0.41 | 0.647 | 0.368
3 | NCI-H2405 | 0.653 | 0.702 | 0.736 | 0.644 | 0.626 | 0.85 | 0.883 | 0.927 | 0.909 | 1.09 | 0.42 | 0.414 | 0.402 | 0.407 | 0.383 | 0.65 | 0.778 | 0.639 | 0.393
4 | NCI-H3122 | – | 0.947 | 1.08 | – | 0.877 | 1.04 | 1.03 | 1.1 | 1.05 | 0.964 | – | 0.377 | 0.381 | – | 0.359 | 0.0874 | 0.123 | 0.0877 | 0.0824
5 | PC-3 [JPC-3] | 0.692 | 0.747 | 0.782 | 0.757 | 0.698 | 0.853 | 0.951 | 0.931 | 0.988 | 0.933 | 0.453 | 0.466 | 0.469 | 0.481 | 0.506 | 0.654 | 0.732 | 0.673 | 0.653
6 | PC-14 | 0.737 | 0.754 | 1 | – | 0.882 | 0.922 | 0.875 | 0.942 | 0.986 | 0.99 | 0.493 | 0.698 | 0.571 | 0.394 | 0.978 | 0.171 | 0.174 | 0.111 | 0.143
7 | RERF-LC-KJ | 0.536 | 0.534 | 0.592 | 0.341 | 0.521 | 0.79 | 0.878 | 0.941 | 0.843 | 0.92 | 0.394 | 0.397 | 0.424 | 0.359 | 0.315 | 1.14 | 1 | 1.18 | 1.15
8 | SK-LU-1 | 0.316 | 0.312 | 0.377 | 0.35 | 0.37 | 0.941 | 1.07 | 1.31 | 1.11 | 0.906 | 0.482 | 0.504 | 0.625 | 0.451 | 0.549 | 0.183 | 0.185 | 0.21 | 0.223
9 | SK-MES-1 | 0.538 | 0.582 | 0.658 | – | 0.622 | 1.03 | 1 | 1.14 | 0.975 | 0.996 | 0.593 | 0.636 | 0.677 | – | 0.612 | 0.437 | 0.359 | 0.234 | 0.169
10 | SW 1573 | 0.423 | 0.59 | 0.573 | – | 0.666 | 0.738 | 0.691 | 0.81 | 0.642 | 0.8 | 0.355 | 0.369 | 0.397 | – | 0.367 | 0.246 | 0.179 | 0.17 | 0.0748
11 | UMC-11 | – | 0.383 | 0.46 | 0.466 | 0.467 | 1.05 | 0.964 | 1.06 | 0.914 | 1.02 | – | 0.255 | 0.307 | 0.268 | 0.212 | 0.932 | 1.08 | 1 | 1.11
